Reference: patent US7504398B2, “Substituted-4-(pyrrolo pyrimidin-6-yl)benzenesulphonamide derivatives” (Laboratorios Almirall S.A., priority 2002, dated 2009)

These compounds were tested against T1, hA2A receptors (Homo sapiens, UniProt P29274) (assay: Adenosine 2A receptor subtype competition radioligand binding). Settings: membranes from hA2A receptors transfected to HEK293 cells, [3H]ZM241385 as radioligand, 90 min at 25° C.; read-out: IC50 A2A.
T1 construct: purchased Receptor Biology, Inc. (USA); host or cells: HEK293
T1 sequence (P29274 whole entry): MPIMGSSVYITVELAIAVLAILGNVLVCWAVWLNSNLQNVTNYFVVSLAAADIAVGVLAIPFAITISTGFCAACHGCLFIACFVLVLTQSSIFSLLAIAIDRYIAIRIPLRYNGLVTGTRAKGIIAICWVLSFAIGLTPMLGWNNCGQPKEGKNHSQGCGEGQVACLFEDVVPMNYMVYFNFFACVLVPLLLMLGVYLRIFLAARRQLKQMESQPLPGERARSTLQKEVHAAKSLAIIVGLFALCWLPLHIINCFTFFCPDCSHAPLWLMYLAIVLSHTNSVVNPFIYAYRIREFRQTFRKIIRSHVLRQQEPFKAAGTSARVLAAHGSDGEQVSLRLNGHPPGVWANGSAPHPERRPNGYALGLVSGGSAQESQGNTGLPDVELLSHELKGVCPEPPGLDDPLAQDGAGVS
Procedure: Adenosine 2A Receptor Subtype Competition Radioligand Binding
Human membranes from recombinant A2A receptors were purchased from Receptor Biology, Inc. (USA).
Competition assays were carried out by incubation of membranes from hA2A receptors transfected to HEK293 cells, [^3H]ZM241385 as radioligand, buffer (50 mM Tris-HCl (pH 7.4), 10 mM MgCl2, 1 mM EDTA, 2 units/ml adenosine deaminase), and unlabelled ligand in a total volume of 0.2 ml for 90 min at 25° C. NECA was used to determinate non-specific binding. Filter over Schleicher&Schuell GF/52 filters (pre-soaked 0.5% polyethylenyimine) in a Brandel cell harvester. Unbound radioligand was removed with 3×3 ml ice-cold 50 mM Tris-Hcl 50 (pH 7.4), 0.9% NaCl.

Row | SMILES | IC50 [nM]
1 | Cn1c(=O)c2[nH]c(-c3ccc(S(=O)(=O)N4CCN(Cc5ccc(Cl)s5)CC4)cc3)cc2n(C)c1=O [Example 18, 6-{4-[4-(5-Chlorothiophen-2-ylmethyl)piperazine-1-sulphonyl]phenyl}-1,3-dimethyl-1,5-dihydropyrrolo[3,2-d]pyrimidine-2,4-dione] | 85
2 | Cn1c(=O)c2[nH]c(-c3ccc(S(=O)(=O)Nc4ccccn4)cc3)cc2n(C)c1=O [Example 38, 4-(1,3-Dimethyl-2,4-dioxo-2,3,4,5-tetrahydro-1H-pyrrolo[3,2-d]pyrimidin-6-yl)-N-pyridin-2-ylbenzenesulphonamide] | 75

Continued, values first:

Row | IC50 [nM] | SMILES
3 | 28 | CCn1c(=O)c2[nH]c(-c3ccc(S(=O)(=O)N4CCN(Cc5ccc(Cl)s5)CC4)cc3)cc2n(CC)c1=O [Example 59, 6-{4-[4-(5-Chlorothiophen-2-ylmethyl)piparazine-1-sulphonyl]phenyl}-1,3-diethyl-1,5-dihydropyrrolo[3,2-d]pyrimidine-2,4dione]
4 | 84 | CCn1c(=O)c2[nH]c(-c3ccc(S(=O)(=O)NC4CCN(Cc5ccc(F)cc5)CC4)cc3)cc2n(CC)c1=O [Example 69, 4-(1,3-Diethyl-2,4-dioxo-2,3,4,5-tetrahydro-1H-pyrrolo[3,2-d]pyrimidin-6-yl)-N-[1-(4-fluorobenzyl)piperidin-4yl]benzenesulphonamide]
5 | 60 | CCCn1c(=O)c2[nH]c(-c3ccc(S(=O)(=O)NC4CCN(Cc5ccccc5)CC4)cc3)cc2n(CCC)c1=O [Example 97, N-(1-Benzylperidin-4-yl)-4-(2,4-dioxo-1,3-dipropyl-2,3,4,5-tetrahydro-1H-pyrrolo[3,2-d]pyrimidin-6-yl)benzenesulphonamide]

What follows are compounds tested against T2, hA2B receptors (Homo sapiens, UniProt P29275) (assay: Adenosine 2B receptor subtype competition radioligand binding). Settings: membranes from hA2B receptors transfected to HEK293 cells, [3H]DPCPX as radioligand, 30 min at 25° C.; read-out: IC50 A2B.
T2 construct: purchased Receptor Biology, Inc. (USA); host or cells: HEK293
T2 sequence (P29275 1-332): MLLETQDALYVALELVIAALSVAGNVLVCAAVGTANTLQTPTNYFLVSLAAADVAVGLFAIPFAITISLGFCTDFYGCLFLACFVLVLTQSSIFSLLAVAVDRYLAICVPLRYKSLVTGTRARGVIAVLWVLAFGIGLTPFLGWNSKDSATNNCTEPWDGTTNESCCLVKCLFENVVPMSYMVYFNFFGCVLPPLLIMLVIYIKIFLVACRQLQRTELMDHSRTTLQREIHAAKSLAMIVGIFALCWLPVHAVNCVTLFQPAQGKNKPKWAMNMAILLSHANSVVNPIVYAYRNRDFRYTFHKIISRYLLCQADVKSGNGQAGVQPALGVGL
Procedure: Adenosine 2B Receptor Subtype Competition Radioligand Binding
Human membranes from recombinant A2B receptors were purchased from Receptor Biology, Inc.(USA).
Competition assays were carried out by incubation of membranes from hA2B receptors transfected to HEK293 cells, [^3H]DPCPX as radioligand, buffer (50 mM Tris-HCl (pH 6.5), 10 mM MgCl2, 1 mM EDTA, 0.1 mM benzamidine, 2 units/ml adenosine deaminase), and unlabelled ligand in a total volume of 0.1 ml for 30 min at 25° C. NECA was used to determinate non-specific binding. Filter over Schleicher&Schuell GF/52 filters (pre-soaked 0.5% polyethylenyimine) in a Brandel cell harvester. Unbound radioligand was removed with 4×2 ml ice-cold 50 mM Tris-Hcl (pH 6.5).

Row | SMILES | IC50 [nM]
6 | Cn1c(=O)c2[nH]c(-c3ccc(S(=O)(=O)N4CCN(Cc5ccccc5)CC4)cc3)cc2n(C)c1=O [Example 1, 6-[4-(4-Benzylpiperazine-1-sulphonyl)phenyl]-1,3-dimethyl-1,5-dihydropyrrolo[3,2-d]pyrimidine-2,4-dione] | 16
7 | Cn1c(=O)c2[nH]c(-c3ccc(S(=O)(=O)N4CCN(Cc5cccc(F)c5)CC4)cc3)cc2n(C)c1=O [Example 3, 6-{4-[4-(3-Fluorobenzyl)piperazine-1-sulphonyl]phenyl}-1,3-dimethyl-1,5-dihydropyrrolo[3,2-d]pyrimidine-2,4-dione] | 7
8 | Cn1c(=O)c2[nH]c(-c3ccc(S(=O)(=O)N4CCN(Cc5ccc(Cl)s5)CC4)cc3)cc2n(C)c1=O [Example 18, 6-{4-[4-(5-Chlorothiophen-2-ylmethyl)piperazine-1-sulphonyl]phenyl}-1,3-dimethyl-1,5-dihydropyrrolo[3,2-d]pyrimidine-2,4-dione] | 4
9 | Cn1c(=O)c2[nH]c(-c3ccc(S(=O)(=O)Nc4ccccn4)cc3)cc2n(C)c1=O [Example 38, 4-(1,3-Dimethyl-2,4-dioxo-2,3,4,5-tetrahydro-1H-pyrrolo[3,2-d]pyrimidin-6-yl)-N-pyridin-2-ylbenzenesulphonamide] | 12
10 | CCCn1c(=O)c2[nH]c(-c3ccc(S(=O)(=O)N4CCN(Cc5ccc(F)cc5)CC4)cc3)cc2n(C)c1=O [Example 107, 6-{4-[4-(4-Fluorobenzyl)piperazine-1-sulphonyl]phenyl}-1-methyl-3-propyl-1,5-dihydropyrrolo[3,2-d]pyrimidine-2,4-dione] | 9
11 | CCCn1c(=O)c2[nH]c(-c3ccc(S(=O)(=O)N4CCN(Cc5ccc6c(c5)OCO6)CC4)cc3)cc2n(C)c1=O [Example 118, 6[4-(4-Benzol[1,3]dioxol-5-ylmethylpiperazine-1-sulphonyl)phenyl]-1-methyl-3-propyl-1,5-dihydropyrrolo[3,2-d]pyrimidine-2,4-dione] | 6
12 | CCCn1c(=O)c2[nH]c(-c3ccc(S(=O)(=O)N4CCN(c5ccccn5)CC4)cc3)cc2n(C)c1=O [Example 126, 1-Methyl-3-propyl-6-[4-(4-pyridin-2-yipiperazine-1-sulphonyl)phenyl]-1,5-dihydropyrrolo[3,2-d]pyrimidin-2,4-dione] | 12
13 | Cn1c(=O)c2[nH]c(-c3ccc(S(=O)(=O)NCCOc4ccccn4)cc3)cc2n(C)c1=O [Example 172, 4-(1,3-Dimethyl-2,4-dioxo-2,3,4,5-tetrahydro-1H-pyrrolo[3,2-d]pyrimidin-6-yl)-N-[2-(pyridin-2-yloxy)ethyl]benzenesulfonamide] | 17
14 | COc1cccc(OCCNS(=O)(=O)c2ccc(-c3cc4c([nH]3)c(=O)n(C)c(=O)n4C)cc2)n1 [Example 173, 4-(1,3-Dimethyl-2,4-dioxo-2,3,4,5-tetrahydro-1H-pyrrolo[3,2-d]pyrimidin-6-yl)-N-[2-(6-methoxypyridin-2-yloxy)ethyl]benzenesulfonamide] | 5

The next lines start with the values.

Row | IC50 [nM] | SMILES
15 | 18 | COc1ccc(NS(=O)(=O)c2ccc(-c3cc4c([nH]3)c(=O)n(C)c(=O)n4C)cc2)cn1 [Example 36, 4-(1,3-Dimethyl-2,4dioxo-2,3,4,5-tetrahydro-1H-pyrrolo[3,2-d]pyrimidin-6-yl)-N-(6-methoxypyridin-3-yl)benzenesulphonamide]
16 | 14 | Cn1c(=O)c2[nH]c(-c3ccc(S(=O)(=O)NCCc4ccccn4)cc3)cc2n(C)c1=O [Example 37, 4-(1,3-Dimethyl-2,4-dioxo-2,3,4,5-tetrahydro-1H-pyrrolo[3,2-d]pyrimidin-6-yl)-N-(2-pyridin-2-ylethyl)benzenesulphonamide]
17 | 17 | CCCn1c(=O)c2[nH]c(-c3ccc(S(=O)(=O)NCCc4ccccn4)cc3)cc2n(C)c1=O [Example 132, 4-(1-Methyl-2,4-dioxo-3-propyl-2,3,4,5-tetrahydro-1H-pyrrolo[3,2-d]pyrimidin-6-yl)-N-(2-pyridin-2-ylethyl)benzenesulphonamide]
